Laboratory results taken from PubChem BioAssay AID720600 (Broad Institute, 2013).
Results filed as inconclusive are left out.

System: SNB-19 viability, Alamar Blue fluorescence, 8-48 h
Assay: cytotoxicity in SNB-19 CNS tumor cells – cell-based, Alamar Blue fluorescence, 8/24/48 h, dry powder, HRAS target identification, dose response (AID 720600)

Structure (SMILES): CC(C)(C)OC(=O)NCCOCCOCCOc1ccc(N(C(=O)CCl)C(C(=O)NCCc2ccccc2)c2cccs2)cc1Cl (configuration not stated)
- AC50 (measured here: 24 h treatment): 296 nM
- AC50 (measured here: 48 h treatment): 353 nM

Structure (SMILES): C#CCCCC(=O)NCCOCCOCCOc1ccc(N(C(=O)CCl)C(C(=O)NCCc2ccccc2)c2cccs2)cc1Cl (configuration not stated)
- AC50 (measured here: 24 h treatment): 946 nM
- AC50 (measured here: 48 h treatment): 2780 nM

Structure (SMILES): COc1ccc(N(C(=O)CCl)C(C(=O)NCCc2ccccc2)c2cccs2)cc1Cl (configuration not stated)
- AC50 (measured here: 8 h treatment): 77.1 nM
- AC50 (measured here: 24 h treatment): 112 nM
- AC50 (measured here: 48 h treatment): 149 nM
